The record followed here is article PMC3604699 (Biochemistry, 2011).

The assay concerns the target sortase A (SrtA) (Staphylococcus aureus, UniProt Q2FV99). The experiment in a line: HPLC transpeptidation assay, time-dependent inactivation kinetics. The format is biochemical. The note with it: read-out: KI.

Sequence of sortase A (SrtA) (Q2FV99 25-206): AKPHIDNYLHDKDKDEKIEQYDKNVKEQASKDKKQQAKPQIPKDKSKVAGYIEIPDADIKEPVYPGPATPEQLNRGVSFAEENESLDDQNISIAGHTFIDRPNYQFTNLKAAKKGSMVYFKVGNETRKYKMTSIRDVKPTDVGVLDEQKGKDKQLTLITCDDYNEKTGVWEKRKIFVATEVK

For the compound `OCl` [NaOCl], the KI (inactivation) stood at 11.8 ± 3.1 mM.
